According to patent US20130323776A1, “CARRIER PEPTIDE FRAGMENT AND USE THEREOF” (Toagosei Co. Ltd., priority 2009, published 2013):
Ends that are not written are not given here. * marks the point of attachment. FITC = O=C1OC2(c3ccc(O)cc3Oc3cc(O)ccc32)c2ccc(NC(=S)*)cc21; Acp = not defined here

Legend:
[1] = tested on: Human neonate foreskin fibroblasts (ATCC Catalogue No. CRL-2097); assay: Evaluation of cell membrane permeability function, confocal laser scanning microscopy of fluorescently labeled peptide; type: cell-based; conditions: 1 μM peptide, 1 or 4 hours culture; for penetration of the cell membrane from outside the cell and transfer into the cytoplasm: methanol fixed
Description: Human neonate foreskin fibroblasts (ATCC Catalogue No. CRL-2097) were used as the eukaryotic cells, and the cell membrane permeability capability of the samples (constructs for transferring a foreign substance) obtained in Example 1 above was investigated.
More specifically, the abovementioned fibroblasts were cultured in a liquid mixture of 90% Eagle MEM culture medium (containing 0.1% nonessential amino acids, 2 mM L-glutamine, 1 mM sodium pyruvate, and 1.5 g/L sodium hydrogen carbonate) and 10% serum (FBS) as the culture medium.
The cultured cells were trypsinized for 1 min at 37° C. with a 0.25% trypsin solution. After the abovementioned treatment, the trypsin was deactivated with FBS-containing medium, and a cell suspension (test sample for foreign substance transfer) was prepared by adjusting the cell concentration to approximately 5×10^4 cells/mL with the culture medium.
Next, 0.5 mL of the abovementioned cell suspension was placed in a designated cell culturing container (culture slide with a surface coating of 0.1% gelatin), and the cells were incubated overnight at 37° C. in a 5% CO2 atmosphere. After incubation the medium was replaced with fresh culture medium, and the 1 mM sample solutions of each of the samples prepared in abovementioned Example 1 were added to a cell culture container so that the final sample concentration (peptide concentration) would be 1 μM. In this case 0.5 μL of sample solution was added to the container. Then the samples were incubated at 37° C. for either 1 or 4 hours in a 5% CO2 atmosphere.
The cells after 1 hour of culture and the cells after 4 hours of culture were each rinsed in PBS and fixed with methanol (on ice for 10 min).
Next the methanol-fixed samples (cells) were mounted using Prolong® Gold Antifade Reagent (Invitrogen) that contains the nuclear stain DAPI (4′,6-diamidino-2-phenylindole). Then the localization within the cells of the peptide bonded to the fluorescent dye (i.e., fluorescently labeled peptide) in each test sample (i.e., the abovementioned mounted test samples after methanol fixation) was investigated using a confocal scanning laser microscope. Part of the results are presented herein as micrographs.

[2] = tested on: human iPS cells (cell line 201B2-082008KU); assay: Evaluation of cell membrane permeability function in iPS cells, confocal laser scanning microscopy of fluorescently labeled peptide; type: cell-based; conditions: 1 μM peptide, 1 or 4 hours culture; for penetration of the cell membrane from outside the cell and transfer into the cytoplasm of iPS cells: human iPS cells on MEF feeder cells, methanol fixed; for foreign substance transfer efficiency toward stem cells such as iPS cells: human iPS cells
Source text: The target cells for transferring the foreign substance were changed from human neonate foreskin fibroblasts to human iPS cells (human induced pluripotent stem cells), and the cell membrane permeability capability of the two samples (constructs for transferring a foreign substance) obtained in Example 1 above was investigated. It should also be noted that the iPS cells (cell line 201B2-082008KU) and the mouse embryonic fibroblast feeder cells (cell line SNL 76/7, hereinafter “MEF”) used in this example were provided by the Yamanaka Research Laboratory of the Institute for Frontier Medical Sciences, Kyoto University (professor Shinya Yamanaka).
First the obtained MEF were inactivated by a mitomycin C treatment (3 hours) and then trypsinised in a 0.25% trypsin solution containing 1 mM EDTA. After the above treatment, the trypsin was deactivated with culture medium containing FBS, and the MEF were adjusted to a suitable cell density using D-MEM medium (Dulbecco's Modified Eagle Medium: Gibco) containing MEF culture medium (7% FBS: Gibco), 2 mM L-glutamine (Gibco), 50 units/mL penicillin, and 50 μg/mL streptomycin (Gibco), and the abovementioned MEF were seeded onto a culture container (in the form of a culture slide or plate) with a surface coating of 0.1% gelatin. In this case, the MEF were seeded so that the cell density would be approximately 1.25×10^5 cells/mL. Next, the abovementioned cell culture containers were incubated overnight at 37° C. in a 5% CO2 atmosphere.
Thereafter, the feeder cells were prepared by removing the MEF culture medium and rinsing with PBS.
Separately, CTK solution (0.25% trypsin solution containing 0.1 mg/mL collagenase IV (Gibco), 1 mM calcium chloride, and 20% KSR (KnockOut® Serum Replacement)) was added to the obtained iPS cell line, the MEF were peeled therefrom, and the cells were rinsed with PBS.
Next, 1 mL hESC culture medium (i.e., human ES cell medium, in this case, DMEM/F12 culture medium (Gibco) containing 20% KSR (Gibco), 2 mM L-glutamine (Gibco), 0.1% nonessential amino acids (Gibco), 0.1 mM 2-mercaptoethanol (Gibco), 50 units/mL penicillin, and 50 μg/mL streptomycin (Invitrogen, 4 ng/mL bFGF (basic fibroblast growth factor)) was added, the iPS cells were peeled off using a cell scraper, and the colony was broken apart by gentle pipetting.
A suspension of iPS cells obtained in this manner was seeded onto the feeder cells in the culture containers that had been prepared as described above. Then, the above-mentioned hESC medium was added, and the cell culture containers were incubated overnight at 37° C. in a 5% CO2 atmosphere.
After incubation overnight, the culture medium was removed from the culture containers, and the abovementioned hESC medium to which one of the 1 mM sample solutions prepared in abovementioned. Example 1 had been added to make a final sample concentration (pipetted concentration) of 1 μM was added to the culture containers. Then the samples were incubated at 37° C. for either 1 or 4 hours in a 5% CO2 atmosphere.
The cells after 1 hour of culture and cells after 4 hours of culture were each rinsed in PBS (phosphate buffered saline) and fixed with methanol (on ice for 10 min).
Next, the same treatment as in Example 2 was performed, and the localization within the iPS cells of the peptide that was bonded to the fluorescent dye (i.e., fluorescently labeled) was investigated using a confocal scanning laser microscope. Part of the results are presented herein as micrographs.

Row | Substance | foreign substance transfer efficiency toward somatic cells such as fibroblasts [1] | penetration of the cell membrane from outside the cell and transfer into the cytoplasm [1] | penetration of the cell membrane from outside the cell and transfer into the cytoplasm of iPS cells [2] | foreign substance transfer efficiency toward stem cells such as iPS cells [2]
1 | (FITC-Acp)-GRCRRLANFGPRKRRRRRR ({FITC-Acp}-GRCRRLANFGPRKRRRRRR; not fully specified (C-terminus); printed as (FITC-Acp)-GRCRRLANFGPRKRRRRRR; reading uncertain) [Sample No. 4] | extremely high | transferred into the cytoplasm | transferred into the cytoplasm of iPS cells | extremely high
2 | (FITC-Acp)-RSRKYTSWYVALKRTLKERCLQVVRSLVK ({FITC-Acp}-RSRKYTSWYVALKRTLKERCLQVVRSLVK; not fully specified (C-terminus); printed as (FITC-Acp)-RSRKYTSWYVALKRTLKERCLQVVRSLVK; reading uncertain) [Sample No. 14] | extremely high | transferred into the cytoplasm | transferred into the cytoplasm of iPS cells | 
3 | (FITC-Acp)-KKLKKRNK ({FITC-Acp}-KKLKKRNK; not fully specified (C-terminus); printed as (FITC-Acp)-KKLKKRNK; reading uncertain) [Sample No. 8] |  | almost no passage through the cell membrane | almost no passage through the cell membrane | 
4 | (FITC-Acp)-RRRKRNRDARRRRRKQ ({FITC-Acp}-RRRKRNRDARRRRRKQ; reading uncertain; also: printed as (FITC-Acp)-RRRKRNRDARRRRRKQ) [Sample No. 5] |  | transferred into the cytoplasm |  | 
5 | (FITC-Acp)-IMRRRGL ({FITC-Acp}-IMRRRGL; not fully specified (C-terminus); printed as (FITC-Acp)-IMRRRGL; reading uncertain) [Sample No. 7] |  | almost no passage through the cell membrane | almost no passage through the cell membrane | 
6 | (FAM)-MAKSIRSKHRRQMRMMKRE ({FAM}-MAKSIRSKHRRQMRMMKRE; not fully specified (C-terminus); printed as (FAM)-MAKSIRSKHRRQMRMMKRE) [Sample No. 2] |  | transferred into the cytoplasm |  | 
7 | (FITC-Acp)-MARRRRHRGPRRPRPP ({FITC-Acp}-MARRRRHRGPRRPRPP; reading uncertain; also: printed as (FITC-Acp)-MARRRRHRGPRRPRPP) [Sample No. 3] |  | transferred into the cytoplasm |  | 
8 | (FAM)-MQRKPTIRRKNLRLRRK ({FAM}-MQRKPTIRRKNLRLRRK; not fully specified (C-terminus); printed as (FAM)-MQRKPTIRRKNLRLRRK) [Sample No. 6] | extremely high | transferred into the cytoplasm | transferred into the cytoplasm of iPS cells | extremely high
